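Following 48 hours of exposure in 96-well plates, responses at five concentrations were used to interpolate endpoints linearly. The concentration for 50% growth inhibition is given as GI50. TGI: concentration producing complete growth inhibition.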
Legend:
Test in all cases: inhibition of tumour cell growth, NCI panel, 48 h; in the data active = GI50 below about 0.43 µM; inactive = the rest
[1] = test system: 786-0 renal
[2] = test system: A498 renal
[3] = test system: A549 NSCLC
[4] = test system: ACHN renal
[5] = test system: BT-549 breast
[6] = test system: CCRF-CEM leukemia
[7] = test system: COLO 205 colon
[8] = test system: DU-145 prostate
[9] = test system: EKVX NSCLC
[10] = test system: HCC-2998 colon
[11] = test system: HCT-116 colon
[12] = test system: HCT-15 colon
[13] = test system: HL-60(TB) leukemia
[14] = test system: HOP-62 NSCLC
[15] = test system: HOP-92 NSCLC
[16] = test system: HS 578T breast
[17] = test system: HT29 colon
[18] = test system: IGROV1 ovarian
[19] = test system: K-562 leukemia
[20] = test system: KM12 colon
[21] = test system: M14 melanoma
[22] = test system: MCF7 breast
[23] = test system: MDA-MB-231 breast
[24] = test system: MDA-MB-435
[25] = test system: MOLT-4 leukemia
[26] = test system: NCI-H226 lung
[27] = test system: NCI-H23 lung
[28] = test system: NCI-H460 lung
[29] = test system: NCI-H522 lung
[30] = test system: NCI/ADR-RES ovarian
[31] = test system: OVCAR-3 ovarian
[32] = test system: OVCAR-4 ovarian
[33] = test system: OVCAR-5 ovarian
[34] = test system: OVCAR-8 ovarian
[35] = test system: PC-3 prostate
[36] = test system: RPMI-8226 leukemia
[37] = test system: RXF 393 renal
[38] = test system: SF-268 CNS
[39] = test system: SF-295 CNS
[40] = test system: SF-539 CNS
[41] = test system: SK-MEL-2 melanoma
[42] = test system: SK-MEL-28 melanoma
[43] = test system: SK-MEL-5 melanoma
[44] = test system: SK-OV-3 ovarian
[45] = test system: SN12C renal
[46] = test system: SNB-19 CNS
[47] = test system: SNB-75 CNS
[48] = test system: SW-620 colon
[49] = test system: T-47D breast
[50] = test system: TK-10 renal
[51] = test system: U251 CNS
[52] = test system: UACC-257 melanoma
[53] = test system: UACC-62 melanoma
[54] = test system: UO-31 renal
[55] = test system: CAKI-1 renal
[56] = test system: LOX IMVI melanoma

O=C(NCCCCN(CCCNC(=O)C(F)(F)F)Cc1ccccc1)C(F)(F)F
> 100 µM: TGI [1] | TGI [2] | TGI [3] | TGI [4] | TGI [5] | TGI [6] | TGI [7] | TGI [8] | TGI [9] | TGI [10] | TGI [11] | TGI [12] | TGI [13] | TGI [14] | TGI [15] | TGI [16] | TGI [17] | TGI [18] | TGI [19] | TGI [20] | TGI [21] | TGI [22] | TGI [23] | TGI [24] | TGI [25] | TGI [26] | TGI [27] | TGI [28] | TGI [29] | TGI [30] | TGI [31] | TGI [32] | TGI [33] | TGI [34] | TGI [35] | TGI [36] | TGI [37] | TGI [38] | TGI [39] | TGI [40] | TGI [41] | TGI [42] | TGI [43] | TGI [44] | TGI [45] | TGI [46] | TGI [47] | TGI [48] | TGI [49] | TGI [50] | TGI [51] | TGI [52] | TGI [53] | TGI [54]

COc1ccccc1NC(=O)c1ccc(NC2=C(Cl)C(=O)N(Cc3ccccc3)C2=O)cc1
86 µM: TGI [20]
29.9 µM: TGI [41]
25.9 µM: TGI [27]
3.2 µM: TGI [54]
21.9 µM: TGI [52]
4.29 µM: TGI [18]
36.2 µM: TGI [11]
32.9 µM: TGI [26] | TGI [34]
45.4 µM: TGI [15]
22.6 µM: TGI [29] | TGI [31]
40.4 µM: TGI [21]
48.1 µM: TGI [30]
active: GI50 [6] 0.0777 µM | GI50 [36] 0.0257 µM | GI50 [52] 0.228 µM
11 µM: TGI [5]
inactive: GI50 [2] 27.8 µM | GI50 [3] 10.5 µM | GI50 [4] 33.4 µM | GI50 [5] 1.46 µM | GI50 [55] 1.48 µM | GI50 [7] 44.9 µM | GI50 [8] 2.01 µM | GI50 [9] 29.1 µM | GI50 [10] 4.2 µM | GI50 [11] 12.9 µM | GI50 [12] 14.7 µM | GI50 [13] 3.36 µM | GI50 [14] 26.8 µM | GI50 [15] 3.68 µM | GI50 [16] 37.5 µM | GI50 [17] 36.8 µM | GI50 [18] 1.36 µM | GI50 [19] 4.21 µM | GI50 [20] 26.6 µM | GI50 [56] 10.3 µM | GI50 [21] 17.6 µM | GI50 [22] 7.77 µM | GI50 [23] 2.82 µM | GI50 [24] 11.2 µM | GI50 [25] 3.31 µM | GI50 [26] 6.84 µM | GI50 [27] 12 µM | GI50 [28] 33.4 µM | GI50 [29] 5.09 µM | GI50 [30] 15.2 µM | GI50 [31] 10.2 µM | GI50 [32] 29.3 µM | GI50 [33] 44.1 µM | GI50 [34] 2.27 µM | GI50 [35] 0.976 µM | GI50 [37] 19.9 µM | GI50 [38] 25.4 µM | GI50 [39] 18.2 µM | GI50 [40] 16.6 µM | GI50 [41] 11.2 µM | GI50 [42] 30.3 µM | GI50 [43] 16 µM | GI50 [44] > 100 µM | GI50 [45] 10.3 µM | GI50 [46] 48.9 µM | GI50 [47] 37.7 µM | GI50 [48] 5.29 µM | GI50 [49] 41.2 µM | GI50 [50] 40.3 µM | GI50 [51] 29.3 µM | GI50 [53] 0.877 µM | GI50 [54] 1.7 µM
63.4 µM: TGI [39]
41.2 µM: TGI [40]
40.5 µM: TGI [24]
63.5 µM: TGI [14]
28 µM: TGI [8]
89.1 µM: TGI [50]
86.3 µM: TGI [2]
35 µM: TGI [56]
54 µM: TGI [22]
24.5 µM: TGI [53]
39.5 µM: TGI [45]
90.4 µM: TGI [3]
38.8 µM: TGI [12]
16.3 µM: TGI [23]
78.8 µM: TGI [37]
5.75 µM: TGI [35]
43.5 µM: TGI [13]
2.95 µM: TGI [55]
> 100 µM: TGI [4] | TGI [6] | TGI [7] | TGI [9] | TGI [16] | TGI [17] | TGI [19] | TGI [25] | TGI [28] | TGI [32] | TGI [33] | TGI [38] | TGI [42] | TGI [44] | TGI [46] | TGI [47] | TGI [48] | TGI [49] | TGI [51]
0.363 µM: TGI [36]
15.4 µM: TGI [10]
45.3 µM: TGI [43]

— PubChem BioAssay (NCI)
